From PMC12481569, “Novltex: A New Class of Antibiotics with Potent Activity against Multidrug-Resistant Bacterial Pathogens–Design, Synthesis, and Biological Evaluation” (Journal of Medicinal Chemistry, 2025)
Converted amounts (≈) assume the structure as drawn. Read-outs that look alike come from different tables or passages of the source.

Tests used:
[1] = tested on: Multidrug-Resistant (MDR) E. faecium; test: microbe, parasite or virus in culture; conditions: 24 h; for MIC: Enterococcus faecium
Experimental: (§1) We further evaluated analogue 12 against multidrug-resistant (MDR) strains of S. aureus (acquired from the NARSA collection) and MDR E. faecium (acquired from International Health Management Associates, IHMA, Europe Sarl), comparing its activity to various classes of clinically used antibiotics (Table ).
(§2) MICs were performed as previously reported 4. For MIC testing all peptides were dissolved in DMSO.
(§3) Bacterial cultures were grown overnight on Mueller-Hinton Agar (MHA) plates and adjusted to a final inoculum of 10^5 – 10^6 CFU/mL. 100 µl of ino culum in Meuller -Hinton broth (MHB) was mixed with equal volume of peptides (dissolved in MHB) at 2x their concentration in a 96 well plate . For daptomycin MIC determination, the same protocol was followed with the addition of 50 mg/L calcium chloride to the medium. MIC values were determined in the media contain ing polysorbate 80 (0.002%, v/v) to prevent non -specific adsorption of the peptides to plastic surfaces. The final peptides concentrations ranged from 0.0625 – 32 µg/mL. The 96 well plates were then incubated at 37 °C for 24 h. All the experiments were performed in two independent duplicates and the MIC was determined as the lowest concentration in which no visible growth was observed.
(§4) Antibiotics MIC break points ( µg/mL)
(§5) Table. S4: Susceptibility cut-off values (MIC breakpoints) for various clinical antibiotics. […]

[2] = tested on: Multidrug-Resistant (MDR) S. aureus; test: microbe, parasite or virus in culture; conditions: 24 h; for MIC: Staphylococcus aureus
Experimental: as §1, §2, §3, §4, §5

[3] = Lipid II binding, spot-on-lawn assays on S. aureus ATCC 33591; design: species or system Staphylococcus aureus; conditions: lipid II (300 μM, 2 μL) at the edge of the antibiotic halo, overnight 37 °C, duplicates
Source text: 6 Spot-on-lawn assays to evaluate binding of Lipid II with analogue 12 on S. aureus ATCC 33591. (A) Analogue 12 was premixed with increasing ratios of lipid II (0.5 to 4 equiv) and spotted onto a seeded lawn of S. aureus 33591. Lipid II and analogue 12 were also spotted independently. The position of the analogue 12–lipid II mixture is marked in red. (B) Daptomycin was used as a negative control. Asterisks denote the positions of analogue 12 (black), lipid II (blue), and daptomycin (green) additions.
Analogue 12 was premixed with increasing ratios of lipid II (0.5 to 4 equiv) for 10 min prior to spotting onto agar plates seeded with a lawn of S. aureus ATCC 33591 and incubated overnight.
XII. Lipid II binding determination of analogue 12
Previously reported methods were used to determine the lipid II binding of analogue 126,7. The lipid II used in this study was prepared by chemical synthesis and its preparation and purification has been […]
A: An overnight culture of S. aureus ATCC 33591 was added to LB agar (45 °C) at a final concentration of 0.1% (vol/vol) and pour-plated into 90 mm petri dishes. Binding of 12 to purified lipid II was assessed using a spot-on-lawn assay. Premixed solutions (5 µL) containing analogue 12 (8 µg) with varying concentration of lipid II were spotted onto the agar, alongside individual controls of 12 and lipid II.
After drying, plates were incubated overnight at 37 °C. This assay was performed in duplicates.
B: To assess the interaction between analogue 12 and lipid II, a culture of S. aureus ATCC 33591 was grown overnight in LB broth and inoculated into LB agar at a final concentration of 1% (v/v) at 45°C.
This mixture was evenly distributed into 90mm petri dishes. Antibiotic inhibition haloes were previously determined by spotting analogue 12 and daptomycin (5 μL,8 µg/mL) onto agar plates and measuring the diameter of the halo after overnight incubation at 37 °C . The binding affinity of analogue 12 and lipid II was later examined by applying purified lipid II (300 μM, 2 μL) to the edge of the antibiotic halo. Analogue 12 and Daptomycin were applied to the inoculated agar plate at a spaced distance, once the antimicrobial solution drops had dried, lipid II was spotted on the edge of the inhibition halo. The plates were then incubated overnight at 37 °C. […]

MRSA ATCC 33591 [4] = test: microbe, parasite or virus in culture; assay type: cell-based, Staphylococcus aureus; conditions: Staphylococcus aureus, 24 h, read-out: MIC against MRSA ATCC 33591
Experimental: as §2
as §3, with “observed. […]” for “observed.”

MRSA ATCC 33591 [5] = test: Time-kill kinetics; assay type: cell-based, Staphylococcus aureus; conditions: 5 μg/mL, MHB with 0.002% polysorbate 80, 37 °C, two independent experiments in duplicate
Experimental: Early-stage time-kill kinetics for analogue 12 against MRSA ATCC 33591 were performed using vancomycin as a control, following the protocol described in Section VIII, Supporting Information.
3 Time-kill kinetics of Novltex analogue 12 and clinical antibiotic (vancomycin) against MRSA 33591. […] Results are the mean ± SD of two independent experiments performed in duplicate.
as §2, §3, §4
Table. […]

| SMILES | MIC, Enterococcus faecium 1563254 ([1]; MDR clinical isolate 1563254, MHB, 0.002% polysorbate 80, 37 °C, daptomycin with 50 mg/L calcium chloride) | MIC, Enterococcus faecium 1581582 ([1]; MDR clinical isolate 1581582, MHB, 0.002% polysorbate 80, 37 °C, daptomycin with 50 mg/L calcium chloride) | MIC, Enterococcus faecium 1766686 ([1]; MDR clinical isolate 1766686, MHB, 0.002% polysorbate 80, 37 °C, daptomycin with 50 mg/L calcium chloride) | MIC, Staphylococcus aureus NR 45914 ([2]; MDR strain NR 45914, MHB, 0.002% polysorbate 80, 37 °C, daptomycin with 50 mg/L calcium chloride) | MIC, Staphylococcus aureus NR 45926 ([2]; MDR strain NR 45926, MHB, 0.002% polysorbate 80, 37 °C, daptomycin with 50 mg/L calcium chloride) | MIC, Staphylococcus aureus NR 45930 ([2]; MDR strain NR 45930, MHB, 0.002% polysorbate 80, 37 °C, daptomycin with 50 mg/L calcium chloride) | MIC, Staphylococcus aureus NR 46062 ([2]; MDR strain NR 46062, MHB, 0.002% polysorbate 80, 37 °C, daptomycin with 50 mg/L calcium chloride) | halo distortion on addition of lipid II [3] | MIC (MRSA ATCC 33591 [4]) | MIC ([1]; read-out: MIC, Enterococcus faecium 1563254) | MIC ([1]; read-out: MIC, Enterococcus faecium 1581582) | MIC ([1]; read-out: MIC, Enterococcus faecium 1766686) | MIC ([2]; read-out: MIC, Staphylococcus aureus NR 45914) | MIC ([2]; read-out: MIC, Staphylococcus aureus NR 45926) | MIC ([2]; read-out: MIC, Staphylococcus aureus NR 45930) | MIC ([2]; read-out: MIC, Staphylococcus aureus NR 46062) | time to similar bacterial killing (MRSA ATCC 33591 [5]) |
| --- | --- | --- | --- | --- | --- | --- | --- | --- | --- | --- | --- | --- | --- | --- | --- | --- | --- |
| CCCCCCCCCC(=O)N[C@@H](Cc1c[nH]c2ccccc12)C(=O)N[C@H](CC(N)=O)C(=O)N[C@@H](CC(=O)O)C(=O)N[C@@H]1C(=O)NCC(=O)N[C@@H](CCCN)C(=O)N[C@@H](CC(=O)O)C(=O)N[C@H](C)C(=O)N[C@@H](CC(=O)O)C(=O)NCC(=O)N[C@H](CO)C(=O)N[C@@H]([C@H](C)CC(=O)O)C(=O)N[C@@H](CC(=O)c2ccccc2N)C(=O)O[C@@H]1C [Daptomycin] | >32 µg/mL | >32 µg/mL | >32 µg/mL | 2 µg/mL (≈ 1.23 µM) | 4 µg/mL (≈ 2.47 µM) | 2 µg/mL (≈ 1.23 µM) | 2 µg/mL (≈ 1.23 µM) | maintained a distinct circular inhibition zone |  |  |  |  |  |  |  |  |  |
| CN[C@H](CC(C)C)C(=O)N[C@H]1C(=O)N[C@@H](CC(N)=O)C(=O)N[C@H]2C(=O)N[C@H]3C(=O)N[C@H](C(=O)N[C@H](C(=O)O)c4cc(O)cc(O)c4-c4cc3ccc4O)[C@H](O)c3ccc(c(Cl)c3)Oc3cc2cc(c3O[C@@H]2O[C@H](CO)[C@@H](O)[C@H](O)[C@H]2O[C@H]2C[C@](C)(N)[C@H](O)[C@H](C)O2)Oc2ccc(cc2Cl)[C@H]1O [Vancomycin] |  |  |  |  |  |  |  |  | 0.5 to 1 µg/mL (≈ 0.345 to 0.69 µM) | > 32 µg/mL | > 32 µg/mL | > 32 µg/mL | 1 µg/mL (≈ 0.69 µM) | 0.5 µg/mL (≈ 0.345 µM) | 1 µg/mL (≈ 0.69 µM) | 2 µg/mL (≈ 1.38 µM) | 24 h |
